According to patent US20240190855A1 (Relay Therapeutics, Inc., priority 2021, published 2024):

What follows are compounds tested against T1, CDK2/Cyclin E complex (Homo sapiens, UniProt P24941) (assay: CDK2/Cyclin E fluorescence-based microfluidic mobility shift assay (CDK2 Biochemical Caliper Assay)). Conditions: read-out: Biochemical CDK2/CyclinE Caliper IC50.
T1 construct: purchased Eurofins 14-475
Outline: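 Wild-type CDK2/Cyclin E was preincubated with compound and ATP for 30 min at RT before the 5-FAM-QSPKKG peptide was added. Final concentrations were 0.1 nM enzyme, 2000 uM ATP, 1.5 uM peptide and 1% DMSO. After 20 hr at RT and EDTA stop, substrate conversion was read by microfluidic mobility shift over an 11-point, 3-fold dilution series.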

SMILES	IC50
COCc1cc(C(=O)Nc2cc([C@@H]3CC[C@H](Oc4ccc(C)nc4)C3)[nH]n2)n(C)n1 (single isomer, unassigned) [Example 396]	1000 to 100000 nM
Cc1cc(CC(=O)Nc2cc([C@H]3C[C@H](CC(=O)NC(C)C)C3)[nH]n2)on1 [Example 348]	1000 to 100000 nM
CN1CCc2c(ccnc2Nc2cc([C@H]3C[C@@H](OC(=O)NC4(C)CC4)CO3)[nH]n2)C1 [Example 758]	1000 to 100000 nM
COCc1cc(C(=O)Nc2cc([C@@H]3CC[C@H](Oc4cncnc4)C3)[nH]n2)n(C)n1 (single isomer, unassigned) [Example 388]	1000 to 100000 nM
CC(C)NC(=O)O[C@@H]1CC[C@H](c2cc(Nc3nccc4ncsc34)n[nH]2)C1 (single isomer, unassigned) [Example 121]	≤ 100 nM
CC(C)NC(=O)O[C@@H]1CC[C@H](c2cc(Nc3ncnc4ncsc34)n[nH]2)C1 [Example 425]	≤ 100 nM
COCc1cc2c(Nc3cc([C@H]4C[C@@H](OC(=O)NC5(CF)CC5)CO4)[nH]n3)nccn2n1 [Example 680]	≤ 100 nM
COCc1cc2c(Nc3cc([C@H]4C[C@@H](OC(=O)N[C@H](C)C5COC5)CO4)[nH]n3)nccn2n1 [Example 711]	250 to 1000 nM
COCc1nc2ccnc(Nc3cc([C@H]4C[C@@H](OC(=O)NC5(COC)CC5)CO4)[nH]n3)c2s1 [Example 682]	≤ 100 nM
Cc1cc(CC(=O)Nc2cc([C@@H]3CC[C@H](Oc4nnccc4C)C3)[nH]n2)on1 (single isomer, unassigned) [Example 120]	≤ 100 nM
COCc1cc(C(=O)Nc2cc([C@H]3CC[C@H](c4cc(C(C)C)ncn4)C3)[nH]n2)n(C)n1 (single isomer, unassigned) [Example 603]	1000 to 100000 nM
Cn1nc(OC(F)(F)Cl)cc1C(=O)Nc1cc([C@H]2C[C@@H](OC(=O)NC3(C)CC3)CO2)[nH]n1 [Example 882]	≤ 100 nM
COCc1cc(C(=O)Nc2cc([C@H]3C[C@@H](COc4[nH]ncc4C(C)C)C3)[nH]n2)n(C)n1 [Example 689]	≤ 100 nM
COCc1cc(C(=O)Nc2cc([C@H]3C[C@@H](COc4cn(C)nc4C(C)(C)C)C3)[nH]n2)n(C)n1 [Example 642]	100 to 250 nM
Cc1cc(CC(=O)Nc2nc(C3CCCC3)c[nH]2)on1 [Example 43]	1000 to 100000 nM
Cc1cncc(Cl)c1Nc1cc(C2CCCC2)[nH]n1 [Example 799]	1000 to 100000 nM
COCc1cc(C(=O)Nc2cc([C@H]3C[C@@H]4[C@H](C3)[C@H]4C(=O)N(C)C)[nH]n2)n(C)n1 [Example 540]	1000 to 100000 nM
CC(C)NC(=O)O[C@H]1CO[C@@H](c2cc(Nc3nccc4nccn34)n[nH]2)C1 [Example 649]	≤ 100 nM
c1cn2ncc(Nc3cc(C4CCCC4)[nH]n3)cc2n1 [Example 793]	1000 to 100000 nM
COc1cccc2ccc(Nc3cc(C4CCCC4)[nH]n3)nc12 [Example 868]	1000 to 100000 nM
COCc1cc2c(Nc3cc([C@H]4C[C@@H](Oc5nn(C)cc5C(C)C)CO4)[nH]n3)nccn2n1 [Example 790]	1000 to 100000 nM
Cc1cc(CC(=O)Nc2cc([C@@H]3CC[C@H](Oc4ccccc4C(C)C)C3)[nH]n2)on1 (single isomer, unassigned) [Example 390]	100 to 250 nM
COCc1nc2ccnc(Nc3cc([C@H]4C[C@@H](OC(=O)NC5(C)CC5)CO4)[nH]n3)c2s1 [Example 681]	≤ 100 nM
COCc1cc2c(Nc3cc([C@H]4C[C@@H](OC(=O)N[C@@H]5C[C@@H]5C)CO4)[nH]n3)nccn2n1 [Example 759]	≤ 100 nM

Next, values leading:

IC50	SMILES
≤ 100 nM	Cc1cc(CC(=O)Nc2cc([C@H]3CC[C@@H](OC(=O)N(C(C)C)C(C)C)C3)n[nH]2)on1 [Example 147]
1000 to 100000 nM	Cc1cc2ncnc(Nc3cc(C4CCCC4)[nH]n3)c2[nH]1 [Example 859]
≤ 100 nM	CC(=O)Nc1cc([C@H]2CC[C@@H](Oc3nnccc3C(C)C)C2)[nH]n1 (single isomer, unassigned) [Example 427]
250 to 1000 nM	CC(C)c1nc(Nc2cc(C3CCCC3)[nH]n2)c2cc[nH]c2n1 [Example 864]
≤ 100 nM	Cn1nc(OCC(F)F)cc1C(=O)Nc1cc([C@H]2C[C@@H](OC(=O)NC34CC(C3)C4)CO2)n[nH]1 [Example 887]
≤ 100 nM	COCc1cc2c(Nc3cc([C@H]4C[C@@H](OC(=O)NC5(C)CC5)CO4)[nH]n3)nccn2n1 [Example 619]
≤ 100 nM	Cc1cc(CC(=O)Nc2ncc([C@@H]3CC[C@H](OC(=O)NC(C)C)C3)s2)on1 (single isomer, unassigned) [Example 443]
1000 to 100000 nM	COCc1cc(C(=O)Nc2cc(-c3csc4cncnc34)[nH]n2)n(C)n1 [Example 242]
≤ 100 nM	COCc1cc(C(=O)Nc2cc([C@H]3C[C@@H](COC(=O)NC(C)C)C3)[nH]n2)n(C)n1 [Example 460]
≤ 100 nM	C[C@H](NC(=O)O[C@H]1CO[C@@H](c2cc(NC(=O)c3cc(COC(F)(F)F)nn3C)n[nH]2)C1)C1CC1 [Example 746]
250 to 1000 nM	Cc1cc(CC(=O)Nc2cc([C@H]3CC[C@@H](NC(N)=O)C3)[nH]n2)on1 (racemic) [Example 10]
≤ 100 nM	CC[C@H](C)NC(=O)O[C@H]1CO[C@@H](c2cc(Nc3ccc4c(n3)C(C)(C)NC4=O)n[nH]2)C1 [Example 736]
≤ 100 nM	COCc1cc2c(Nc3cc([C@H]4C[C@@H](OC(=O)N[C@@H]5CC5(C)C)CO4)[nH]n3)nccn2n1 [Example 679]
1000 to 100000 nM	COCc1cc(C(=O)Nc2cc([C@@H]3CC[C@H](c4ccc(C)nn4)C3)[nH]n2)n(C)n1 (single isomer, unassigned) [Example 573]
250 to 1000 nM	Cc1cc(CC(=O)Nc2cc([C@@H]3CC[C@H](Oc4cnccc4C)C3)[nH]n2)on1 (single isomer, unassigned) [Example 379]
1000 to 100000 nM	Cc1ncccc1O[C@@H]1CC[C@H](c2cc(Nc3ncnc4ncccc34)n[nH]2)C1 (single isomer, unassigned) [Example 486]
1000 to 100000 nM	Cc1cc(CC(=O)Nc2cc([C@H]3CC[C@@H](NC(=O)[C@@H](O)C(C)C)C3)[nH]n2)on1 (single isomer, unassigned) [Example 482]
1000 to 100000 nM	COCc1cc(C(=O)Nc2cc([C@@H]3CC[C@@H](c4cccc(C(C)C)n4)C3)[nH]n2)n(C)n1 (single isomer, unassigned) [Example 608]
≤ 100 nM	CCc1ccnnc1O[C@H]1CC[C@@H](c2cc(NC(=O)c3cc(COC)nn3C)n[nH]2)C1 (single isomer, unassigned) [Example 510]
1000 to 100000 nM	COCc1cc(C(=O)Nc2cc([C@H]3CC[C@H](c4cccc(C(C)C)n4)C3)[nH]n2)n(C)n1 (single isomer, unassigned) [Example 607]
1000 to 100000 nM	Cc1nc(Nc2cc(C3CCCC3)[nH]n2)c2sccc2n1 [Example 839]
≤ 100 nM	CC(C)NC(=O)O[C@H]1CC[C@@H](c2cc(Nc3nccn4nc(C(F)(F)F)cc34)n[nH]2)C1 (single isomer, unassigned) [Example 501]
≤ 100 nM	COCc1cc2c(Nc3cc([C@H]4C[C@@H](COc5[nH]ncc5C(C)(C)C)C4)[nH]n3)nccn2n1 [Example 708]
1000 to 100000 nM	Cc1cc(CC(=O)Nc2cc([C@@H]3C[C@@H]3COC(=O)NC(C)C)[nH]n2)on1 (single isomer, unassigned) [Example 136]
≤ 100 nM	COCc1cc2c(Nc3cc([C@H]4C[C@@H](OC(=O)N[C@H](C)CC(F)(F)F)CO4)[nH]n3)nccn2n1 (single isomer, unassigned) [Example 757]
